Reference: US8999970B2, “Administration of an anti-obesity compound to individuals with renal impairment” (Arena Pharmaceuticals, Inc., priority 2010, dated 2015)

What was measured:
[1] = Toxicity studies in rats (determination of NOAEL); assay type: in vivo; conditions: for Exposure multiple relative to human exposure at 10 mg BID: rats 5 mg/kg/day (NOAEL); for Exposure multiple of human exposure at 10 mg BID: rats 50 mg/kg/day for 6 months
Protocol: In rats, a single 1000 mg/kg dose caused death. […] The highest dose tested in 28-day studies, 50 mg/kg/day, was associated with increased serum lipids, centrilobular hepatocellular hypertrophy, splenic extramedullary hematopoiesis, increased pigmented macrophages, and reticulocytosis, and increased kidney weights, with minimal renal tubular epithelial hyperplasia in males only. A 13-week study and a 6-month study gave similar findings except there was no renal tubular epithelial changes and increases in kidney weights were limited to the 3-month study; the NOAEL was 5 mg/kg/day, which produced exposure multiples of 1.2 and 2.8 (males and females) relative to human exposure at a dose of 10 mg BID.
In rats but not mice, modest increases in kidney weights were reported at high dose (≧50 mg/kg) in the 10-day, 28-day and 3-month studies, but were without microscopic correlate except in the 28-day study, in which minimal renal tubular epithelial hypertrophy was reported in male rats. In the one year toxicology study in monkeys, minimal to moderate focal tubular epithelial degeneration and/or regeneration were observed. The potential clinical relevance of this finding was evaluated in two ways. First, two pathologists with expertise in human renal pathology (Helmut Rennke, M.D. and Stephen Bonsib, M.D.) independently reviewed all monkey kidney slides from the 1-year study in a blinded manner. Both reported the findings to be mild and focal, clinically unimportant, without dose relationship, and more likely related to aging, infection, or inflammation than to study drug. Secondly, renal function was monitored in clinical trials not only by measuring creatinine and BUN, but also by examining urine sediment and by calculating creatinine clearance. The urine sediment data are of limited value due to the preponderance of “dirty” urine specimens contaminated with epithelial cells and other external debris. Neither BUN nor creatinine was affected by lorcaserin. Creatinine clearance, which was calculated using both actual body weight and the preferred ideal body weight method, was also not affected by lorcaserin use of up to 2 years.

[2] = Toxicity studies in monkeys (single dose, 28-day, 13-week, 12-month); assay type: in vivo, cynomolgus monkeys; conditions: for Exposure multiple relative to human exposure at 10 mg BID: monkeys 100 mg/kg/day
Protocol: In cynomolgus monkeys, dose-limiting emesis occurred at 300 mg/kg single dose. In repeat
In a 28-day repeat dose study, one male given 100 mg/kg/day experienced a seizure. […] Reduced weight gain and food consumption occurred in 28-day, 13-week and 12-month studies at doses ≧10 mg/kg/day. Cholesterol, LDL and HDL decreased at ≧10 mg/kg/day in the 12-month study. […] The NOAEL was considered to be 2 mg/kg/day.
This animal continued treatment on Day 2 and no further seizures were observed throughout the duration of the study. […] A reduction in serum lipids (cholesterol, HDL, and LDL) was measured in both sexes treated with ≧10 mg/kg doses of lorcaserin. Reductions in total cholesterol and LDL occurred in some animals treated with 2 mg/kg as well. There was a dose-independent reduction in the mean triglyceride concentration in both sexes at ≧2 mg/kg. Mild increases in ALT occurred primarily in females at all dose levels and in one control animal. White blood cells in the urine of some females dosed at ≧50 mg/kg/day were thought to be associated with renal tubular changes noted histologically in three out of five cases.
There were no lorcaserin-related gross findings. Histologic changes were identified in the kidneys, ovaries, and possibly in the liver. Changes in the kidney consisted of focal or multifocal tubular epithelial cell degeneration, regeneration, and cellular casts. […] The histologic renal changes attributed to lorcaserin were not associated with changes in serum chemistry or kidney function. A review of the renal findings was conducted by two expert human renal pathologists, each of whom independently read blinded slides and reached the same conclusion: the administration of lorcaserin to monkeys for 12 months was not associated with drug-related renal pathology. […] One of these pathologists attributed the potential finding of regeneration to a staining artifact resulting in a bluish cytoplasmic discoloration. […] This change was reversible after a one month drug-free interval. […] The lipidosis was not present in animals sacrificed after a one month drug-free interval. No changes were identified by the study pathologist or the peer review pathologist in the heart, heart valves, pulmonary vessels or lungs of animals given lorcaserin compared to controls.
Changes in the kidney consisted of focal tubular epithelial cell degeneration, regeneration, and cellular casts. […] These findings were not observed in previous monkey studies, and no similar kidney findings occurred in rodents. Renal findings were determined to be unrelated to lorcaserin treatment by two independent human renal pathologists after reviewing blinded slide sets. In their independent opinions, the findings were not dose related and were consistent with age and focal inflammation or infection. One pathologist attributed the findings of regeneration to a staining artifact, resulting in a bluish cytoplasmic discoloration. If tubular renal epithelial regeneration were artifactual, renal findings of the conducting laboratory would be limited to the high dose. At 2, 10, 50, and 125 mg/kg, the margins were 1.0 and 0.6, 8 and 5, 44 and 31, and 51 and 51 times human exposure at the MRD for males and females, respectively. Renal findings in rodents and monkeys were of uncertain relationship to lorcaserin. Substantial margins over human exposure exist for all renal finding in rodents, and in monkeys according to two expert human renal pathologists. Even assuming the renal findings in monkeys are drug related, the principal findings were focal or multifocal, minimal to mild (1 instance of moderate regeneration at the high dose) renal tubular epithelial regeneration and degeneration that would have had to have been much more severe and diffuse to be of clinical relevance. Based upon adverse events, clinical chemistry and urinalyses in an extensive phase 2 and phase 3 program, there is no evidence of a lorcaserin effect on the kidney in humans.

## C[C@H]1CNCCc2ccc(Cl)cc21 [Lorcaserin, (R)-8-chloro-1-methyl-2,3,4,5-tetrahydro-1H-3-benzazepine]
[1]; both sexes, rat, in vivo, rats, 13-week and 6-month studies
  NOAEL: 5 mg/kg/day
[1]; rats
  Single dose that caused death: 1000 mg/kg
[1]; females
  Exposure multiple relative to human exposure at 10 mg BID: 2.8
  Exposure multiple of human exposure at 10 mg BID: 34 times
[1]; males
  Exposure multiple relative to human exposure at 10 mg BID: 1.2
  Exposure multiple of human exposure at 10 mg BID: 22 times
[1]; rats, 10-day repeat dose studies
  Doses with no mortality: ≤ 150 mg/kg/day
[1]; rats, 10-day, 28-day and 3-month studies
  Doses with modest increases in kidney weights: ≥ 50 mg/kg
[2]; both sexes, cynomolgus monkey, in vivo, oral, monkeys, 12-month study
  NOAEL at 12 months: 2 mg/kg/day
[2]; cynomolgus monkey, in vivo, oral, monkeys, repeat dose studies, read-out: Maximum tolerated dose
  MTD: 100 to 125 mg/kg/day
[2]; cynomolgus monkeys
  Single dose with dose-limiting emesis: 300 mg/kg
[2]; monkeys 2 mg/kg, females
  Margin, times human exposure at the MRD: 0.6 times
[2]; monkeys 2 mg/kg, males
  Margin, times human exposure at the MRD: 1.0 times
[2]; monkeys 10 mg/kg, females
  Margin, times human exposure at the MRD: 5 times
[2]; monkeys 10 mg/kg, males
  Margin, times human exposure at the MRD: 8 times
[2]; monkeys 50 mg/kg, females
  Margin, times human exposure at the MRD: 31 times
[2]; monkeys 50 mg/kg, males
  Margin, times human exposure at the MRD: 44 times
[2]; females
  Exposure multiple relative to human exposure at 10 mg BID: 68
[2]; males
  Exposure multiple relative to human exposure at 10 mg BID: 74
[2]; monkeys 125 mg/kg, females
  Margin, times human exposure at the MRD: 51 times
[2]; monkeys 125 mg/kg, males
  Margin, times human exposure at the MRD: 51 times
[2]; monkeys 12 months, 2 mg/kg
  Animals with focal renal tubular epithelial cell degeneration and/or regeneration (minimal to mild regeneration in renal cortex): 1/8
  Females with cystic ovarian follicles: 0/4
[2]; monkeys 12 months, 2 mg/kg/day
  Animals with hepatic lipidosis: 4/8
[2]; monkeys 12 months, 10 mg/kg
  Animals with focal renal tubular epithelial cell degeneration and/or regeneration (minimal to mild regeneration in renal cortex): 2/8
  Females with cystic ovarian follicles: 1/4
[2]; monkeys 12 months, 10 mg/kg/day
  Animals with hepatic lipidosis: 2/8
[2]; monkeys 12 months, 50 mg/kg
  Animals with focal renal tubular epithelial cell degeneration and/or regeneration (minimal to mild regeneration in renal cortex): 3/8
  Females with cystic ovarian follicles: 1/4
  Males with cellular casts: 1/4
[2]; monkeys 12 months, 50 mg/kg/day
  Animals with hepatic lipidosis: 3/8
[2]; monkeys 12 months, 125 mg/kg
  Animals with cellular casts: 4/4
  Animals with focal renal tubular epithelial cell degeneration and/or regeneration (minimal to mild regeneration in renal cortex): 6/8
  Females with cellular casts: 2/4
  Females with cystic ovarian follicles: 3/4
  Males with cellular casts: 1/4
[2]; monkeys 12 months, 125 mg/kg group
  Animals with regeneration (incl. moderate): 7/8
[2]; monkeys 12 months, 250 mg/kg/day
  Animals with hepatic lipidosis: 4/8
[2]; monkeys 12 months, both sexes
  Doses with dose-dependent decrease in activity and hunched appearance: ≥ 10 mg/kg
[2]; monkeys 12 months, high dose
  Females with moderate epithelial regeneration: 1/4
[2]; monkeys 12 months, high dose group (125 mg/kg)
  Animals with minimal to mild tubular epithelial degeneration: 6 of 8
[2]; monkeys, 12-month study
  Doses at which cholesterol, LDL and HDL decreased: ≥ 10 mg/kg/day
  Lorcaserin-related deaths: no lorcaserin-related deaths
[2]; monkeys, 28-day, 13-week and 12-month studies
  Doses with reduced weight gain and food consumption: ≥ 10 mg/kg/day
